Experimental data: patent publication US20220378739A1, “NATURAL KILLER CELL IMMUNOTHERAPY FOR THE TREATMENT OF GLIOBLASTOMA AND OTHER CANCERS” (BOARD OF REGENTS, THE UNIVERSITY OF TEXAS SYSTEM, priority 2019, published 2022)

Legend:
GSC targets = test: NK cell functional assay (51Cr release; CD107a, IFN-γ, TNF-α) against GSC targets after co-culture with GSCs; assay type: cell-based, human; settings: 48 hours co-culture with GSCs 1:1; inhibitor 10 μM
Experimental: NK cells were co-cultured for 5 hours with K562 or GSCs target cells at an optimized effector:target ratio of 5:1 together with CD107a PE-CF594 (BD Biosciences), monensin (BD GolgiStopTM) and BFA (Brefeldin A, Sigma Aldrich). NK cells were incubated without targets as the negative control and stimulated with PMA (50 ng/mL) and ionomycin ([…], Sigma Aldrich) as positive control. Cells were collected, washed and stained with surface antibodies (mentioned above), fixed/permeabilized (BD Biosciences) and stained with IFN-7 v450 and TNF-α Alexa700 (BD Biosciences) antibodies.
NK cell cytotoxicity was assessed using chromium (siCr) release assay. Briefly, K562 or GSCs target cells were labeled with siCr (PerkinElmer Life Sciences, Boston, Mass.) at 50 μCi/5×10^5 cells for 2 hours. ^51Cr-labeled K562/GSC targets (5×105) were incubated for 4 h with serially diluted magnetically isolated NK cells in triplicate. Supernatants were then harvested and analysed for ^51Cr content.
For studies of NK cell suppression by GSCs and human astrocytes, magnetically selected healthy NK cells were cultured in Serum-free Stem Cell Growth Medium (SCGM; CellGro/CellGenix) supplemented with 5% glutamine, 5 μM HEPES (both from GIBCO/Invitrogen), and 10% FCS (Biosera) in 96-well flat-bottomed plates (Nunc) at 100,000/100D11. […]

[1] = test system: TiNKs / HC-NK cells rendered dysfunctional by GSCs; test: Reversal of established NK cell dysfunction (TiNKs ex vivo; NK cell recovery assays); assay type: cell-based, human
Experimental: FIGS. 11A-11G. […] (FIG. 11A) NK cells were incubated with or without galunisertinib (10 μM) or LY2109761 (10 μM) for 48 hours. Representative zebra plots show their CD107a, IFN-γ, and TNF-α response to K562 targets. NK cells were gated on CD3-CD56+ lymphocytes. Inset numbers are the percentages of CD107a-, IFN-γ- or TNF-α-positive NK cells within the gated NK cell population. (FIGS. 11B-11C) NK cells were cultured either alone or with GSCs in a 1:1 ratio with or without LY2109761 or galunisertib for 48 hrs. Representative zebra plots and summary box plots show their CD107, IFN-γ, and TNF-α expression response to K562 (FIG. 11B) or GSC (FIG. 11C) targets. Effector:target ratio is 5:1. NK cells were defined as CD3-CD56+ lymphocytes. Inset numbers are the percentages of CD107a-, IFN-γ- or TNF-α-positive NK cells (n=7, n=4 respectively). (FIG. 11D) TiNK cells were cultured for 24 hours in media with 5 ng/ml IL-15 with or without galunisertib. Representative zebra plots and bar graph summary show their CD107, IFN-γ, and TNF-α response to K562 targets. Effector:target ratio is 5:1. NK cells were gated on CD3-CD56+ lymphocytes. Inset numbers are the percentages of CD107a-, IFN-γ- or TNF-α-positive NK cells within the indicated regions. (n=3). (FIG. 11E) TiNK cells and paired PB-NK cells from GBM patients were cultured in the presence or absence of galunisertib for 12 hours. The bar graphs summarize the mean fluorescence intensity (MFI) for their p-Smad⅔ expression. Paired t test was performed to determine statistical significance (n=3). (FIG. 11F) Specific lysis (^51Cr release assay) of K562 targets by NK cells. After 48 hours of culture alone (blue lines) or with GSCs, healthy donor NK cells were either left with GSCs (red lines), or purified and re-suspended in media for another 48 hours (black lines). NK cells were then collected and used for ^51Cr release assay (n=4). (FIG. 11G) Specific lysis (^51Cr release assay) of K562 targets by NK cells. After 48 hours of culture alone (blue lines) or with GSCs, healthy donor NK cells were either left with GSCs ([…]) or purified and cultured in SCGM media plus 5 ng/ml IL-15 with (black lines) or without galunisertib (10 μM) (gray lines) for […]. At the end of the culture period, their cytotoxicity was tested against k562 targets by ^51Cr release assay (n=4).
NK cells were cultured either with GSCs in a 1:1 ratio or alone for 48 hours. After 48 hours of co-incubation, NK cells were then either purified again by bead selection and resuspended in SCGM media or remained in culture with GSCs for an additional 48 hours and then used for ^51Cr release assay. In a second assay, after reselection, NK cells were cultured for another 5 days in SCGM in the presence of 5 ng/ml IL-15 with or without 10 μM galunisertib before use for ^51Cr release assay.

[2] = literature; cited from earlier work

In the case of `Cc1cccc(-c2nn3c(c2-c2ccnc4ccc(C(N)=O)cc24)CCC3)n1` [galunisertib], the “GSC-induced NK cell dysfunction: natural cytotoxicity against GSC targets” value (GSC targets) is reported as “preserving the natural cytotoxicity of NK cells against K562 or GSC targets”, the “reversal of GSC-induced dysfunction of HC-NK cells” value ([1]; NK cells purified after 48 hours with GSCs, then IL-15 5 ng/ml with or without galunisertib 10 μM) is reported as “did not reverse the dysfunction of HC-NK cells induced by GSCs” and the “restoration of TiNK function (specific lysis of K562; CD107, IFN-γ, TNF-α)” value ([1]; TiNKs cultured 24 hours, galunisertib 10 μM or IL-15 5 ng/ml) is reported as “failed to inactivate the TGF-β1 Smad⅔ signaling pathway and restore NK cell dysfunction”. For the same compound, the “TGF-β1 Smad⅔ signaling in TiNKs” value ([1]; TiNKs from GBM patients cultured ex vivo, galunisertib 12 hours or IL-15) was “failed to inactivate the TGF-β1 Smad⅔ signaling pathway” and the “safety in glioblastoma patients” value [2] was “has been used safely in GBM patients”.
